# Ends that are not written are not given here. * marks the point of attachment. Biotin = O=C1N[C@H]2[C@H](CS[C@H]2CCCCC(=O)*)N1
# Experiments:
# [1] = system: rabbits (Fauves de Bourgogne); experiment: ELISA of sera from rabbit immunized with the C-20 peptide (plates coated with C-20); format: in vivo; details: rabbit Hermione; after the first 2 injections; serum dilution 1/2000
# Experimental: A biotinylated C-20 peptide was synthesized as in Example 2. After synthesis the biotinylated C-20 peptide was solubilized in water containing 10% DMSO at a concentration of 2 mg/ml. 100 μg of this solution (corresponding to 50 μl) was mixed with 50 μg of streptavidin in 250 μl distilled water. This solution was then mixed with 250 μl of adjuvant; complete Freund's adjuvant (CFA) for the first injection and incomplete Freund's adjuvant (IFA) for the following injections. Rabbits (Fauves de Bourgogne) were injected intramuscularly with 500 μl of the antigen/adjuvant mixture. 10 ml of blood was collected from the rabbits before the first injection of antigen. This serum is referred to as S0 or pre-immune serum.
# All sera were tested by ELISA using 2 types of plates (PVC and Maxisorp) coated with the C-20 peptide.
# [2] = system: rabbits (Fauves de Bourgogne); experiment: ELISA of sera from rabbit immunized with the CBD-1 peptide (plates coated with CBD-1); format: in vivo
# Experimental: The biotinylated CBD-1 peptide was solubilized in water containing 10% DMSO at a concentration of 2 mg/ml. 100 μg of this solution (50 μl) was mixed with 50 μg of streptavidin in 250 μl of distilled water. This solution was then mixed with 250 μl of complete Freund's adjuvant (CFA) for the first injection and incomplete Freund's adjuvant (IFA) for the following injections. 10 ml of blood was collected from the rabbits before the first injection of antigen; this serum was referred to as S0 or pre-immune serum.
# The rabbits (Fauves de Bourgogne) were injected intramuscularly with 500 μl of the antigen/adjuvant mixture. The following Table 1 presents the injection and bleeding dates of the rabbit named “Aldernay”:
# All sera were tested by ELISA using 2 types of plates (PVC and Maxisorp) coated with the CBD-1 peptide. The optical density (OD) was measured at 450 nm. An OD value above 0.20 was considered positive.
# [3] = system: Midkine; experiment: Effect of the CBD-1 peptide on Midkine binding and entry into cells (confocal microscopy); format: cell-based
# Experimental: (§1) Several studies in laser scanning confocal immunofluorescence microscopy were conducted to investigate the interaction of the CBD-1 peptide with cells and its effect on Midkine. […] Midkine binds its low affinity receptor, surface-expressed nucleolin, before entry into cells by an active process in which lipid rafts appear to be implicated (34).
# [4] = system: HeLa cells; experiment: Entry of the CBD-1 peptide into cells (confocal immunofluorescence microscopy); format: cell-based
# Experimental: as §1
# On intact cells, the CBD-1 peptide appeared to interact with caveolin at the plasma membrane.
# HeLa cells in culture medium were incubated (45 min at 37° C.) with the biotinylated CBD-1 peptide (5 μM). Cells were then washed and fixed with paraformaldehyde/Triton X-100 solution. […] The secondary antibody was Texas Red dye-conjugated donkey anti-rabbit IgG (Jackson ImmunoResearch Laboratories, PA). Confocal microscopy was performed as described previously (6).
# [5] = biological target: T1, caveolin (Homo sapiens, UniProt Q03135); experiment: Binding of biotinylated CBD-1 to caveolin in crude MT4 cell extracts (avidine-sepharose, immunoblot)
# T1 construct: endogenous in cells
# T1 sequence (Q03135 1-178): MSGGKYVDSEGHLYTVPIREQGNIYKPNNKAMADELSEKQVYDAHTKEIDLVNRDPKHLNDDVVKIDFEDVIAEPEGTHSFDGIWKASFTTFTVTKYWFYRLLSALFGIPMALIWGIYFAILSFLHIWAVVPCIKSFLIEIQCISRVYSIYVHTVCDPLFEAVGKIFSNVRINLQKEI
# Experimental: MT4 cells were extracted in buffer containing 10 mM Hepes, pH 7.6, 50 mM KCl, 400 mM NaCl, 1 mM EDTA, protease inhibitor cocktail and 1% Triton X-100®. Extracts were centrifuged at 12,000×g and the supernatants were stored at […]. 100 μl of cell extracts were first diluted with 400 μl of homogenization buffer and left at 4° C. for 10 minutes before centrifuging at 12,000×g.
# The diluted supernatants were then incubated at 4° C. in the presence of 0, 2, 5, 10 and 20 μM of the biotinylated CBD-1 peptide. After 90 minutes, 100 μl of avidine-sepharose were added in each sample and the samples were further incubated at 4° C. for 2 hours with gentle shaking. The samples were then washed extensively with PBS and proteins bound to avidine-sepharose were eluted in 100 μl of electrophoresis sample buffer containing SDS and analyzed by SDS-PAGE (using a 12.5% polyacrylamide gel) for immunoblotting with rabbit anti-caveolin 1 antibodies ([…]) as previously described (6).
# Cell extracts were first incubated with 50 μM of CBD-1 (+) or without CBD-1 (−) before the addition of 10 μM biotinylated CBD-1 and further processed as above. Lane E represents the analysis of crude cell extracts diluted 1-fold in the electrophoresis sample buffer. […]
substance,measurement,setting,value
DGIWKASFTTFTVTKYWFYR (DGIWKASFTTFTVTKYWFYR) [C-20 peptide],antibodies against C-20 in serum (ELISA),[1],significant amount of antibodies against C-20
L-E-Q-I-W-N-N-M-T-W-M-Q-W-D-K (LEQIWNNMTWMQWDK) [CBD-1 peptide],antibodies against CBD-1 in serum (ELISA),"[2]; after the first 3 injections, serum dilution 1/2,000",significant amount of antibodies against CBD-1
same,"immunogenicity of the peptide (anti-CBD-1 antibodies in serum, ELISA)","[2]; rabbit Aldernay, intramuscular, biotinylated peptide with streptavidin in CFA/IFA, OD 450 nm above 0.20 positive",immunogenic
same,Midkine binding to cells,[3],without affecting Midkine binding to cells
same,entry of Midkine into cells,[3],blocks entry of Midkine into cells
same,entry of the peptide into cells,[4]; dependence on incubation temperature,occurred at 37 °C but not at 20 °C
biotinylated CBD-1: CBD-1 peptide with a biotinyl moiety coupled at the N terminus (Biotin-LEQIWNNMTWMQWDK),caveolin purified from crude extracts with the biotinylated peptide,"[5]; 0, 2, 5, 10 and 20 μM biotinylated CBD-1, 4° C.",in a dose dependent manner
same,capacity to bind caveolin in the presence of excess CBD-1,[5]; 50 μM CBD-1 before 10 μM biotinylated CBD-1,reduced capacity
same,localization of the peptide in cells,"[4]; HeLa cells, 5 μM, 45 min at 37° C.",localized in the cytoplasm

# — patent US8173767B2, “Synthetic peptide vaccines for HIV: the CBD epitope as an effective immunogen to elicit broadly neutralizing antibodies against HIV” (Institut Pasteur, priority 2003, dated 2012)
